IC50 data for 18 molecules are collected here from patent US20240050428A1 (Cullgen (Shanghai), Inc., priority 2020, published 2024).

One test concerns MOLM-13 cells. The test is described as follows: Cell viability assay (CellTiter-Glo) in MOLM-13 cells, alone or with gilteritinib. It counts as cell-based. The following applies: Homo sapiens, MOLM-13 cells, CellTiter-Glo. A general note: ATP-based viability assays read luminescence as a measure of living cells.
A further test has as its system MV4;11 cells. The test is described as follows: Cell viability assay (CellTiter-Glo) in MV4;11 cells, alone or with gilteritinib. In kind it is cell-based. The following applies: Homo sapiens, MV4;11 cells, CellTiter-Glo, read-out: MV4.
Where [1] appears, read: MOLM-13, 72 h, compound alone (without gilteritinib), three days, read-out: MOLM-13 IC50.
[2] abbreviates: MOLM-13, 72 h, with gilteritinib 20 nM, three days, read-out: MOLM-13 IC50 gilteritinib.
Setting [3] is: MV4-11, 72 h, compound alone (without gilteritinib), three days, 11 IC50.
Setting [4] is: MV4-11, 72 h, with gilteritinib 10 nM, three days, 11 IC50 gilteritinib.
Setting [5] is: 72 h, compound alone (without gilteritinib), three days, read-out: MOLM-13 IC50.
The mark [6] stands for this setting: 72 h, with gilteritinib 20 nM, three days, read-out: MOLM-13 IC50 gilteritinib.
The mark [7] stands for this setting: 72 h, compound alone (without gilteritinib), three days, 11 IC50.
Setting [8] is: 72 h, with gilteritinib 10 nM, three days, 11 IC50 gilteritinib.
[9] abbreviates: MOLM-13, 72 h, compound with gilteritinib 20 nM, three days, read-out: MOLM-13 IC50 gilteritinib.
[10] abbreviates: MV4-11, 72 h, compound with gilteritinib 10 nM, three days, 11 IC50 gilteritinib.

Where two headings read alike, the source gives them in different places. Bounds are passed on as bounds.

Consider `CN1C2CCC1CN(c1ccc3ncc(-c4cnn([C@H]5C[C@H](CCCNc6ccc7c(c6)C(=O)N(C6CCC(=O)NC6=O)C7=O)C5)c4)nc3c1)C2` (stereo partly drawn) [GS-409, 2-(2,6-dioxopiperidin-3-yl)-5-((3-(trans-3-(4-(7-(8-methyl-3,8-diazabicyclo[3.2.1]octan-3-yl)quinoxalin-2-yl)-1H-pyrazol-1-yl)cyclobutyl)propyl)amino)isoindoline-1,3-dione], for which the IC50 was 10 to 100 nM with MOLM-13 cells (setting [1]), less than 10 nM in the test with MOLM-13 cells (setting [2]), 10 to 100 nM in the test on MV4;11 cells (setting [3]) and 10 to 100 nM with MV4;11 cells (setting [4]).

`O=C1CCC(N2C(=O)c3ccc(NC[C@H]4C[C@@H](n5cc(-c6cnc7ccc(N8CCNCC8)cc7n6)cn5)C4)cc3C2=O)C(=O)N1` (stereo partly drawn) [GS-186, 2-(2,6-Dioxopiperidin-3-yl)-5-(((cis-3-(4-(7-(piperazin-1-yl)quinoxalin-2-yl)-1H-pyrazol-1-yl)cyclobutyl)methyl)amino)isoindoline-1,3-dione]: the IC50 is more than 1000 nM in the test with MOLM-13 cells (setting [1]), 100 to 1000 nM in the test on MOLM-13 cells (setting [2]), more than 1000 nM with MV4;11 cells (setting [3]) and more than 1000 nM in the test on MV4;11 cells (setting [4]).

As to `O=C1CCC(N2C(=O)c3ccc(NC[C@H]4C[C@H](n5cc(-c6cccc(NC7CNC7)n6)c(C6CC6)n5)C4)cc3C2=O)C(=O)N1` (stereo partly drawn) [GS-274, 5-(((trans-3-(4-(6-(Azetidin-3-ylamino)pyridin-2-yl)-3-cyclopropyl-1H-pyrazol-1-yl)cyclobutyl)methyl)amino)-2-(2,6-dioxopiperidin-3-yl)isoindoline-1,3-dione], the IC50 in the test with MOLM-13 cells (setting [1]), in the test with MOLM-13 cells (setting [2]), in the test on MV4;11 cells (setting [3]) and in the test on MV4;11 cells (setting [4]) was more than 1000 nM in each case.

In the case of `O=C1CCC(N2C(=O)c3ccc(NCCC[C@H]4C[C@@H](n5cc(-c6cnc7ccc(N8CCOCC8)cc7n6)c(C6CC6)n5)C4)cc3C2=O)C(=O)N1` (stereo partly drawn) [GS-227, 5-((3-(cis-3-(3-Cyclopropyl-4-(7-morpholinoquinoxalin-2-yl)-1H-pyrazol-1-yl)cyclobutyl)propyl)amino)-2-(2,6-dioxopiperidin-3-yl)isoindoline-1,3-dione], the IC50 in the test with MOLM-13 cells (setting [1]), in the test on MOLM-13 cells (setting [2]), in the test on MV4;11 cells (setting [3]) and in the test with MV4;11 cells (setting [4]) was less than 10 nM each time.

In the case of `O=C1CCC(N2C(=O)c3ccc(NCCNc4cccc(N5CCC(c6ccccc6)CC5)c4)cc3C2=O)C(=O)N1` (stereo not drawn) [GS-366, 2-(2,6-Dioxopiperidin-3-yl)-5-((2-((3-(4-phenylpiperidin-1-yl)phenyl)amino)ethyl)amino)isoindoline-1,3-dione], the IC50 is 10 to 100 nM in the test on MOLM-13 cells (setting [5]), less than 10 nM with MOLM-13 cells (setting [6]), 10 to 100 nM with MV4;11 cells (setting [7]) and less than 10 nM in the test with MV4;11 cells (setting [8]).

Regarding `O=C1CCC(N2C(=O)c3ccc(NCCCCCCn4cc(-c5cnc6cccc(Cl)c6n5)cn4)cc3C2=O)C(=O)N1` (stereo not drawn) [GS-376, 5-((6-(4-(8-Chloroquinoxalin-2-yl)-1H-pyrazol-1-yl)hexyl)amino)-2-(2,6-dioxopiperidin-3-yl)isoindoline-1,3-dione], the IC50 was more than 1000 nM with MOLM-13 cells (setting [1]), 10 to 100 nM with MOLM-13 cells (setting [2]), 100 to 1000 nM in the test with MV4;11 cells (setting [3]) and 10 to 100 nM with MV4;11 cells (setting [4]).

As to `Cc1cccc(-c2cn([C@H]3C[C@H](CNc4ccc5c(c4)C(=O)N(C4CCC(=O)NC4=O)C5=O)C3)nc2C(F)(F)F)n1` (stereo partly drawn) [GS-439, 2-(2,6-dioxopiperidin-3-yl)-5-(((trans-3-(4-(6-methylpyridin-2-yl)-3-(trifluoromethyl)-1H-pyrazol-1-yl)cyclobutyl)methyl)amino)isoindoline-1,3-dione], the IC50 in the test on MOLM-13 cells (setting [1]) was more than 1000 nM; with MOLM-13 cells (setting [9]) it was 10 to 100 nM; in the test with MV4;11 cells (setting [3]) it was 100 to 1000 nM; with MV4;11 cells (setting [10]) it was 10 to 100 nM.

Regarding `O=C1CCC(N2C(=O)c3ccc(NCCCCCC(=O)N4CCC(N5CCCCC5)CC4)cc3C2=O)C(=O)N1` (stereo not drawn) [GS-012, 5-((6-([1,4′-Bipiperidin]-1′-yl)-6-oxohexyl)amino)-2-(2,6-dioxopiperidin-3-yl)isoindoline-1,3-dione], the IC50 is 312 nM with MOLM-13 cells (MOLM-13, 72 h, with 20 nM gilteritinib, 3 days, read-out: MOLM-13 IC50 gilteritinib); more than 10000 nM in the test with MOLM-13 cells (MOLM-13, 72 h, without gilteritinib, 3 days, read-out: MOLM-13 IC50); more than 10000 nM in the test with MV4;11 cells (MV4-11, 72 h, with 10 nM gilteritinib, 3 days, 11 IC50 gilteritinib); more than 10000 nM with MV4;11 cells (MV4-11, 72 h, without gilteritinib, 3 days, 11 IC50).

In the case of `O=C1CCC(N2Cc3ccc(CCCC(=O)N4CCC(n5cc(-c6cnc7ccccc7n6)cn5)CC4)cc3C2=O)C(=O)N1` (stereo not drawn) [GS-158, 3-(1-Oxo-6-(4-oxo-4-(4-(4-(quinoxalin-2-yl)-1H-pyrazol-1-yl)piperidin-1-yl)butyl)isoindolin-2-yl)piperidine-2,6-dione], the IC50 in the test on MOLM-13 cells (setting [1]), in the test on MOLM-13 cells (setting [2]), with MV4;11 cells (setting [3]) and in the test with MV4;11 cells (setting [4]) was more than 1000 nM throughout.

As for `O=C1CCC(N2C(=O)c3ccc(NCCNC4CC(n5cc(-c6cnc7ccccc7n6)cn5)C4)cc3C2=O)C(=O)N1` (stereo not drawn) [GS-373, 2-(2,6-Dioxopiperidin-3-yl)-5-((2-((3-(4-(quinoxalin-2-yl)-1H-pyrazol-1-yl)cyclobutyl)amino)ethyl)amino)isoindoline-1,3-dione], the IC50 with MOLM-13 cells (setting [5]), with MOLM-13 cells (setting [6]), in the test with MV4;11 cells (setting [7]) and with MV4;11 cells (setting [8]) was more than 1000 nM throughout.

For `Cc1nn([C@H]2C[C@@H](CCCNc3ccc4c(c3)C(=O)N(C3CCC(=O)NC3=O)C4=O)C2)cc1-c1cnc2cc(N3CCNCC3)ccc2n1` (stereo partly drawn) [GS-434, 2-(2,6-dioxopiperidin-3-yl)-5-((3-(cis-3-(3-methyl-4-(6-(piperazin-1-yl)quinoxalin-2-yl)-1H-pyrazol-1-yl)cyclobutyl)propyl)amino)isoindoline-1,3-dione], the IC50 in the test on MOLM-13 cells (setting [1]) is 10 to 100 nM; in the test with MOLM-13 cells (setting [9]), less than 10 nM; in the test on MV4;11 cells (setting [3]) it was less than 10 nM; in the test with MV4;11 cells (setting [10]), less than 10 nM.

`O=C1CCC(N2C(=O)c3ccc(NCCCCCn4cc(-c5cnc6ccccc6n5)cn4)cc3C2=O)C(=O)N1` (stereo not drawn) [GS-356, 2-(2,6-Dioxopiperidin-3-yl)-5-((5-(4-(quinoxalin-2-yl)-1H-pyrazol-1-yl)pentyl)amino)isoindoline-1,3-dione]: the IC50 with MOLM-13 cells (setting [1]) is more than 1000 nM; in the test with MOLM-13 cells (setting [2]), 100 to 1000 nM; in the test on MV4;11 cells (setting [3]), 100 to 1000 nM; in the test with MV4;11 cells (setting [4]), 100 to 1000 nM.

As for `O=C1CCC(N2C(=O)c3ccc(NCC4CCC(Cn5cc(-c6cnc7ccccc7n6)cn5)CC4)cc3C2=O)C(=O)N1` (stereo not drawn) [GS-155, 2-(2,6-Dioxopiperidin-3-yl)-5-(((4-((4-(quinoxalin-2-yl)-1H-pyrazol-1-yl)methyl)cyclohexyl)methyl)amino)isoindoline-1,3-dione], the IC50 in the test with MOLM-13 cells (setting [1]) was more than 1000 nM; in the test with MOLM-13 cells (setting [2]) it was 100 to 1000 nM; in the test with MV4;11 cells (setting [3]), 100 to 1000 nM; in the test on MV4;11 cells (setting [4]) it was more than 1000 nM.

With `O=C1CCC(N2C(=O)c3ccc(NC[C@H]4C[C@H](n5cc(-c6cnc7ccc(N8CCNCC8)cc7n6)cn5)C4)cc3C2=O)C(=O)N1` (stereo partly drawn) [GS-187, 2-(2,6-Dioxopiperidin-3-yl)-5-(((trans-3-(4-(7-(piperazin-1-yl)quinoxalin-2-yl)-1H-pyrazol-1-yl)cyclobutyl)methyl)amino)isoindoline-1,3-dione], the IC50 in the test with MOLM-13 cells (setting [1]), with MOLM-13 cells (setting [2]), in the test on MV4;11 cells (setting [3]) and with MV4;11 cells (setting [4]) was more than 1000 nM each time.

In the case of `O=C1CCC(N2C(=O)c3ccc(NCCC4CC(n5cc(-c6cnc7ccccc7n6)cn5)C4)cc3C2=O)C(=O)N1` (stereo not drawn) [GS-561, 2-(2,6-Dioxopiperidin-3-yl)-5-((2-(3-(4-(quinoxalin-2-yl)-1H-pyrazol-1-yl)cyclobutyl)ethyl)amino)isoindoline-1,3-dione], the IC50 in the test on MOLM-13 cells (setting [1]) is more than 1000 nM; with MOLM-13 cells (setting [9]), 10 to 100 nM; in the test with MV4;11 cells (setting [3]) it was more than 1000 nM; in the test on MV4;11 cells (setting [10]) it was 100 to 1000 nM.

With `O=C1CCC(N2Cc3cc(OCCCCCC(=O)N4CCN(c5ccccc5)CC4)ccc3C2=O)C(=O)N1` (stereo not drawn) [GS-329, 3-(1-Oxo-5-((6-oxo-6-(4-phenylpiperazin-1-yl)hexyl)oxy)isoindolin-2-yl)piperidine-2,6-dione], the IC50 was more than 1000 nM in the test with MOLM-13 cells (setting [5]), 100 to 1000 nM with MOLM-13 cells (setting [6]), more than 1000 nM with MV4;11 cells (setting [7]) and more than 1000 nM in the test on MV4;11 cells (setting [8]).

For the molecule `O=C1CCC(N2C(=O)c3ccc(NC[C@H]4C[C@H](n5cc(-c6cnc7cc(N8CCOCC8)ccc7n6)c(C6CC6)n5)C4)cc3C2=O)C(=O)N1` (stereo partly drawn) [GS-066, 5-(((trans-3-(3-Cyclopropyl-4-(6-morpholinoquinoxalin-2-yl)-1H-pyrazol-1-yl)cyclobutyl)methyl)amino)-2-(2,6-dioxopiperidin-3-yl)isoindoline-1,3-dione], the IC50 in the test with MOLM-13 cells (setting [1]) is 10 to 100 nM; with MOLM-13 cells (setting [2]) it was less than 10 nM; in the test on MV4;11 cells (setting [3]), 10 to 100 nM; with MV4;11 cells (setting [4]), less than 10 nM.

Take `CN(c1ccccn1)C1CCN(CC(=O)NCCNc2ccc3c(c2)C(=O)N(C2CCC(=O)NC2=O)C3=O)CC1` (stereo not drawn) [GS-321, N-(2-((2-(2,6-Dioxopiperidin-3-yl)-1,3-dioxoisoindolin-5-yl)amino)ethyl)-2-(4-(methyl(pyridin-2-yl)amino)piperidin-1-yl)acetamide]: the IC50 was more than 1000 nM with MOLM-13 cells (setting [1]), 100 to 1000 nM in the test on MOLM-13 cells (setting [2]), more than 1000 nM with MV4;11 cells (setting [3]) and more than 1000 nM in the test on MV4;11 cells (setting [4]).
